Data published in US20230271959A1, “HETEROCYCLIC COMPOUND AS BCL-2 INHIBITOR” (Beijing Innocare Pharma Tech Co., Ltd., priority 2020, published 2023).

Columns and labels:
[1] = molecular target: T1, human recombinant Bcl-2 protein (Homo sapiens, UniProt P10415); experiment: Fluorescence polarization test for inhibition of BCL-2 binding to FITC-BIM; conditions: 5 nM BCL-2, 5 nM FITC-BIM, read-out: FP BCL-2 IC50
T1 construct: purchased Beijing Yigiao Shenzhou Biotechnology Co., Ltd. 10195-HOSE
Summary of the method: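 FP competition: compound preincubated 15 min with recombinant human Bcl-2 (diluted to 5 nM), then FITC-BIM (diluted to 5 nM) added for 30 min at room temperature in PBS pH 7.4 with 1 mM DTT. Polarization read at 480/535 nm; IC50 from 8-point 4-fold series fitted by four-parameter equation.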

[2] = molecular target: T2, human recombinant Bcl-XL protein (Homo sapiens, UniProt Q07817); experiment: Fluorescence polarization test for inhibition of BCL-XL binding to FITC-BIM; conditions: 10 nM BCL-XL, 10 nM FITC-BIM, read-out: FP BCL-XL IC50
T2 construct: purchased Beijing Yiqiao Shenzhou Biotechnology Co., Ltd. 10455-H0SE
Summary of the method: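 Human recombinant Bcl-XL (10 nM diluted stock) preincubated with compound 15 min at RT in PBS pH 7.4, 1 mM DTT, then FITC-BIM peptide (10 nM diluted stock) added for 30 min in dark. FP read at ex 480/em 535 nm; no-protein wells = 100% inhibition; IC50 from 8-point 4-fold dilution curve fit.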

[3] = system: RS4;11 cells (acute lymphoblastic leukemia cells); experiment: RS4;11 cell proliferation, CellTilter-Glo luminescence cell viability assay; assay type: cell-based; conditions: Homo sapiens, RS4-11; CTG readout after 48 hours
Summary of the method: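 RS4;11 cells plated overnight were exposed for 48 h at 37 °C, 5% CO2 to an 8-point, 4-fold compound dilution series; the vehicle control contained 0.2% DMSO. Viability was read by CellTiter-Glo luminescence. Percent inhibition was referenced to no-cell and DMSO controls, and IC50 came from a four-parameter sigmoidal fit.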

T1 sequence (P10415 whole entry): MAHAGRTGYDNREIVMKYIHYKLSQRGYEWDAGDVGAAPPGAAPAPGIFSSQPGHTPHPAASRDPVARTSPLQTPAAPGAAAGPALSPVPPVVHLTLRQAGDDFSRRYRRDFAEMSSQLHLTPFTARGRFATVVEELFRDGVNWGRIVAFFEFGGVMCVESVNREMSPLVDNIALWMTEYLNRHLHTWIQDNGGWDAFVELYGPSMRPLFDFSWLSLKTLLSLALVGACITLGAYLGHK
T2 sequence (Q07817 whole entry): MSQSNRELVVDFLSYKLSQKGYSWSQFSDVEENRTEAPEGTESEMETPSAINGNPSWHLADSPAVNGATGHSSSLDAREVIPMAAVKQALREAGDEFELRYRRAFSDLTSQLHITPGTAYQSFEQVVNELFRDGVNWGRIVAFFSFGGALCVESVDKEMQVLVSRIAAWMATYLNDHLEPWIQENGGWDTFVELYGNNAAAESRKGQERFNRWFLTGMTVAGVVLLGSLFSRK

Structure (SMILES)	IC50 [1] [nM]	IC50 [2] [nM]	IC50 [3] [nM]
C[C@@H]1CN(c2ccc(C(=O)NS(=O)(=O)c3cc(F)c(NC[C@H]4COCCO4)c([N+](=O)[O-])c3)c(Oc3cnc4[nH]ccc4c3)c2)CCN1CC1=C(c2ccc(Cl)cc2)CC(C)(C)C(C)(C)C1 [Example 41, N-((4-((((S)-1,4-dioxan-2-yl)methyl)amino)-3-fluoro-5-nitrophenyl)sulfonyl)-2-((1H-pyrrolo[2,3-b]pyridin-5-yl)oxy)-4-((R)-4-((4′-chloro-4,4,5,5-tetramethyl-3,4,5,6-tetrahydro-[1,1′-biphenyl]-2-yl)methyl)-3-methylpiperazin-1-yl)benzamide]	1.28	> 1000	8
C[C@@H]1CN(c2ccc(C(=O)NS(=O)(=O)c3ccc(NC[C@H]4COCCO4)c([N+](=O)[O-])c3)c(Oc3cnc4[nH]ccc4c3)c2)CCN1CC1=C(c2ccc(Cl)cc2)CC(C)(C)C(C)(C)C1 [Example 42, N-((4-((((S)-1,4-dioxan-2-yl)methyl)amino)-3-nitrophenyl)sulfonyl)-2-((1H-pyrrolo[2,3-b]pyridin-5-yl)oxy)-4-((R)-4-((4′-chloro-4,4,5,5-tetramethyl-3,4,5,6-tetrahydro-[1,1′-biphenyl]-2-yl)methyl)-3-methylpiperazin-1-yl) benzamide]	1.53	> 1000	10
C[C@@H]1CN(CC2=C(c3ccc(Cl)cc3)CCC(C)(C)C2)CCN1c1ccc(C(=O)NS(=O)(=O)c2cc(F)c(NCC3CCOCC3)c([N+](=O)[O-])c2)c(Oc2cnc3[nH]ccc3c2)c1 [Example 43, (R)-2-((1H-pyrrolo[2,3-b]pyridin-5-yl)oxy)-4-(4-((4′-chloro-4,4-dimethyl-3,4,5,6-tetrahydro[1,1′-biphenyl]-2-yl)methyl)-2-methylpiperazin-1-yl)-N-((3-fluoro-5-nitro-4--(((tetrahydro-2H-pyran-4-yl)methyl)amino)phenyl)sulfonyl)benzamide]	6.33	> 1000	161
C[C@@H]1CN(CC2=C(c3ccc(Cl)cc3)CCC(C)(C)C2)CCN1c1ccc(C(=O)NS(=O)(=O)c2ccc(NC[C@H]3COCCO3)c([N+](=O)[O-])c2)c(Oc2cnc3[nH]ccc3c2)c1 [Example 44, N-((4-((((S)-1,4-dioxan-2-yl)methyl)amino)-3-nitrophenyl)sulfonyl)-2-((1H-pyrrolo[2,3-b]pyridin-5-yl)oxy)-4-((R)-4-((4′-chloro-4,4-dimethyl-3,4,5,6-tetrahydro-[1,1′-biphenyl]-2-yl)methyl)-2-methylpiperazin-1-yl) benzamide]	4.98	> 1000	54
C[C@@H]1CN(CC2=C(c3ccc(Cl)cc3)CCC(C)(C)C2)CCN1c1ccc(C(=O)NS(=O)(=O)c2cc(F)c(NC[C@H]3COCCO3)c([N+](=O)[O-])c2)c(Oc2cnc3[nH]ccc3c2)c1 [Example 45, N-((4-((((S)-1,4-dioxan-2-yl)methyl)amino)-3-fluoro-5-nitrophenyl)sulfonyl)-2-((1H-pyrrolo[2,3-b]pyridin-5-yl)oxy)-4-((R)-4-((4′-chloro-4,4-dimethyl-3,4,5,6-tetrahydro-[1,1′-biphenyl]-2-yl)methyl)-2-methylpiperazin-1-yl)benzamide]	4.22	> 1000	52
C[C@@H]1CN(CC2=C(c3ccc(Cl)cc3)CC(C)(C)CC2)CCN1c1ccc(C(=O)NS(=O)(=O)c2cc(F)c(NC[C@H]3COCCO3)c([N+](=O)[O-])c2)c(Oc2cnc3[nH]ccc3c2)c1 [Example 46]	1.09	> 1000	18
C[C@H]1CN(c2ccc(C(=O)NS(=O)(=O)c3cc(F)c(NC[C@H]4COCCO4)c([N+](=O)[O-])c3)c(Oc3cnc4[nH]ccc4c3)c2)CCN1CC1=C(c2ccc(Cl)cc2)CC(C)(C)CC1 [Example 47, N-((4-((((S)-1,4-dioxan-2-yl)methyl)amino)-3-fluoro-5-nitrophenyl)sulfonyl)-2-((1H-pyrrolo[2,3-b]pyridin-5-yl)oxy)-4-((S)-4-((4′-chloro-5,5-dimethyl-3,4,5,6-tetrahydro-[1,1′-biphenyl]-2-yl)methyl)-3-methylpiperazin-1-yl) benzamide]	> 100	> 1000	486
C[C@H]1CN(c2ccc(C(=O)NS(=O)(=O)c3ccc(NC[C@H]4COCCO4)c([N+](=O)[O-])c3)c(Oc3cnc4[nH]ccc4c3)c2)CCN1CC1=C(c2ccc(Cl)cc2)CC(C)(C)CC1 [Example 48, N-((4-((((S)-1,4-dioxan-2-yl)methyl)amino)-3-nitrophenyl)sulfonyl)-2-((1H-pyrrolo[2,3-b]pyridin-5-yl)oxy)-4-((S)-4-((4′-chloro-5,5-dimethyl-3,4,5,6-tetrahydro-[1,1′-biphenyl]-2-yl)methyl)-3-methylpiperazin-1-yl) benzamide]	63.8	> 1000	229
C[C@H]1CN(c2ccc(C(=O)NS(=O)(=O)c3ccc(NC[C@H]4COCCO4)c([N+](=O)[O-])c3)c(Oc3cnc4[nH]ccc4c3)c2)CCN1CC1=C(c2ccc(Cl)cc2)CCC(C)(C)C1 [Example 49, N-((4-((((S)-1,4-dioxan-2-yl)methyl)amino)-3-nitrophenyl)sulfonyl)-2-((1H-pyrrolo[2,3-b]pyridin-5-yl)oxy)-4-((S)-4-((4′-chloro-4,4-dimethyl-3,4,5,6-tetrahydro-[1,1′-biphenyl]-2-yl)methyl)-3-methylpiperazin-1-yl) benzamide]	> 100	> 1000	> 500
C[C@H]1CN(c2ccc(C(=O)NS(=O)(=O)c3ccc(NCC4CCOCC4)c([N+](=O)[O-])c3)c(Oc3cnc4[nH]ccc4c3)c2)CCN1CC1=C(c2ccc(Cl)cc2)CC(C)(C)CC1 [Example 50, (S)-2-((1H-pyrrolo[2,3-b]pyridin-5-yl)oxy)-4-(4-((4′-chloro-5,5-dimethyl-3,4,5,6-tetrahydro-[1,1′-biphenyl]-2-yl)methyl)-3-methylpiperazin-1-yl)-N-((3-nitro-4--(((tetrahydro-2H-pyran-4-yl)methyl)amino)phenyl)sulfonyl) benzamide]	> 100	> 1000	> 500
C[C@H]1CN(c2ccc(C(=O)NS(=O)(=O)c3ccc(NC[C@@H]4COCCO4)c([N+](=O)[O-])c3)c(Oc3cnc4[nH]ccc4c3)c2)CCN1CC1=C(c2ccc(Cl)cc2)CC(C)(C)CC1 [Example 51, N-((4-((((R)-1,4-dioxan-2-yl)methyl)amino)-3-nitrophenyl)sulfonyl)-2-((1H-pyrrolo[2,3-b]pyridin-5-yl)oxy)-4-((S)-4-((4′-chloro-5,5-dimethyl-3,4,5,6-tetrahydro-[1,1′-biphenyl]-2-yl)methyl)-3-methylpiperazin-1-yl) benzamide]	> 100	> 1000	> 500
C[C@@H]1CN(c2ccc(C(=O)NS(=O)(=O)c3ccc(NC[C@@H]4COCCO4)c([N+](=O)[O-])c3)c(Oc3cnc4[nH]ccc4c3)c2)CCN1CC1=C(c2ccc(Cl)cc2)CC(C)(C)CC1 [Example 52, N-((4-((((R)-1,4-dioxan-2-yl)methyl)amino)-3-nitrophenyl)sulfonyl)-2-((1H-pyrrolo [2,3-b]pyridin-5-yl)oxy)-4-((R)-4-((4′-chloro-5,5-dimethyl-3,4,5,6-tetrahydro-[1,1′-biphenyl]-2-yl)methyl)-3-methylpiperazin-1-yl) benzamide]	1.9	> 1000	5.1
C[C@H]1CN(c2ccc(C(=O)NS(=O)(=O)c3ccc(NC[C@@H]4COCCO4)c([N+](=O)[O-])c3)c(Oc3cnc4[nH]ccc4c3)c2)CCN1CC1=C(c2ccc(Cl)cc2)CCC(C)(C)C1 [Example 53, N-((4-((((R)-1,4-dioxan-2-yl)methyl)amino)-3-nitrophenyl)sulfonyl)-2-((1H-pyrrolo[2,3-b]pyridin-5-yl)oxy)-4-((S)-4-((4′-chloro-4,4-dimethyl-3,4,5,6-tetrahydro-[1,1′-biphenyl]-2-yl)methyl)-3-methylpiperazin-1-yl)benzamide]	> 100	> 1000	> 500
C[C@@H]1CN(c2ccc(C(=O)NS(=O)(=O)c3ccc(NC[C@@H]4COCCO4)c([N+](=O)[O-])c3)c(Oc3cnc4[nH]ccc4c3)c2)CCN1CC1=C(c2ccc(Cl)cc2)CCC(C)(C)C1 [Example 54, N-((4-((((R)-1,4-dioxan-2-yl)methyl)amino)-3-nitrophenyl)sulfonyl)-2-((1H-pyrrolo[2,3-b]pyridin-5-yl)oxy)-4-((R)-4-((4′-chloro-4,4-dimethyl-3,4,5,6-tetrahydro-[1,1′-biphenyl]-2-yl)methyl)-3-methylpiperazin-1-yl)benzamide]	11	> 1000	25
C[C@@H]1CN(c2ccc(C(=O)NS(=O)(=O)c3cc(F)c(NC[C@@H]4COCCO4)c([N+](=O)[O-])c3)c(Oc3cnc4[nH]ccc4c3)c2)CCN1CC1=C(c2ccc(Cl)cc2)CC(C)(C)CC1 [Example 55, N-((4-((((R)-1,4-dioxan-2-yl)methyl)amino)-3-fluoro-5-nitrophenyl)sulfonyl)-2-((1H-pyrrolo[2,3-b]pyridin-5-yl)oxy)-4-((R)-4-((4′-chloro-5,5-dimethyl-3,4,5,6-tetrahydro-[1,1′-biphenyl]-2-yl)methyl)-3-methylpiperazin-1-yl)benzamide]	2.3	> 1000	5.7
